Among the data in PubChem BioAssay (NCI) are TGI and GI50 values, retold here.

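Following 48 hours of exposure in 96-well plates, responses at five concentrations were used to interpolate endpoints linearly. Here, GI50 denotes the concentration required for 50% inhibition of growth. At the TGI there is no net growth.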 Peptide text beside a SMILES is read from it. * marks the point of attachment. X26 = Clc1c(Cl)c(Cl)c(O*)c(Cl)c1Cl; Boc = CC(C)(C)OC(=O)*; OBn = c1ccc(CO*)cc1; Bn = c1ccc(C*)cc1 Some results are limits rather than exact numbers.

Common to all, as to test: NCI tumour cell line growth inhibition, 48 h
Assay [1] relates to HOP-92 NSCLC.
Assay [2] has as its system UACC-257 melanoma.
Assay [3] has as its system OVCAR-8 ovarian.
The subject of assay [4] is RPMI-8226 leukemia.
In assay [5] the test system is NCI-H23 lung.
Assay [6] deals with HT29 colon.
In assay [7] the test system is K-562 leukemia.
In assay [8] the test system is U251 CNS.
Assay [9] deals with HOP-62 NSCLC.
Assay [10] concerns SR leukemia.

In the case of `Cc1ccc2c(c1C)CC1(Cc3c(C)ccc(C)c3C1=O)C2=O` (centres undefined), the TGI in assay [1], in [2], in assay [3], in [4], in [5] and in [6] was greater than 100 µM throughout. Moreover, the TGI in assay [7] and in assay [8] was greater than 100 µM each time.
Turning to `O=C1/C(=C/c2ccc(Cl)cc2)CCCc2ccc(F)cc21`, the GI50 in assay [1] was 9.3 µM; in assay [2], 16.7 µM; in assay [3] it was 22.8 µM; in [4], 4.36 µM; in [5], 36.7 µM; in assay [6] it was 24.2 µM. Moreover, the GI50 in [7] is 11.1 µM; in [8], 13.4 µM. For the same compound, the TGI in assay [1] is 34 µM; in assay [2] it was 42.9 µM; in assay [3] it was 75.1 µM; in assay [4], 28.7 µM; in assay [5] it was greater than 100 µM; in assay [6] it was greater than 100 µM. In addition, the TGI was greater than 100 µM in assay [7] and 52.6 µM in assay [8].
Take `O=c1ccn(-c2ccccn2)c(=O)n1-c1ccccn1`: the TGI in assay [1], in [2], in [3], in [9], in [4] and in assay [5] was greater than 100 µM in each case. The TGI in assay [6], in assay [7] and in [8] was greater than 100 µM throughout.
For the compound `O=C1NC(=S)NC(=O)C1C(c1ccc(Cl)cc1)C1C(=O)NC(=S)NC1=O`, the TGI in assay [1], in assay [2], in [3], in assay [9], in [4] and in assay [5] was greater than 100 µM each time. The TGI in [6], in assay [7] and in [8] was greater than 100 µM each time.
As for `COc1cccc(N2C(=O)CS(=O)(=O)C2c2cccc(Oc3ccccc3)c2)c1` (centres undefined), the TGI was 68.5 µM in assay [1]; 44.1 µM in assay [2]; 77.2 µM in [3]; greater than 100 µM in assay [9]; greater than 100 µM in assay [5]; 89.3 µM in assay [6]. Besides, the TGI in assay [10] is 13.1 µM; in assay [7], 19.5 µM; in assay [8] it was 49.7 µM.
Regarding `CCCO/N=[N+](\[O-])N(CC)CC`, the TGI in assay [1], in assay [2], in [3], in assay [9], in assay [5] and in [6] was greater than 100 µM in each case. For the same compound, the TGI in assay [10], in assay [7] and in assay [8] was greater than 100 µM in each case.
`CC(=O)N(C)c1ccc(Nc2ccnc3ccc4nn(C)nc4c23)cc1`: the TGI in assay [2] was 58.3 µM; in assay [3] it was greater than 100 µM; in assay [9] it was 84.3 µM; in assay [4], 46.9 µM; in assay [5], 82.1 µM; in [6] it was greater than 100 µM. The TGI is 77.1 µM in [10] and greater than 100 µM in assay [8].
With `CN(C)CCNc1c([N+](=O)[O-])sc2ccc(Cl)cc12`, the TGI in assay [3], in assay [9], in assay [4], in assay [5], in assay [6] and in [10] was greater than 100 µM throughout. In addition, the TGI is greater than 100 µM in assay [7] and 78.3 µM in assay [8].
On to `CCOC(=O)Cn1nnc2cc(Nc3c(C)[n+]([O-])c4cc(F)c(OCC)cc4[n+]3[O-])ccc21`, for which the TGI was 49.5 µM in [1]; greater than 100 µM in assay [2]; greater than 100 µM in assay [3]; 89.5 µM in [9]; greater than 100 µM in assay [4]; greater than 100 µM in assay [5]. The TGI in assay [6], in [7] and in assay [8] was greater than 100 µM in each case.
Regarding `O=[N+]([O-])/C(Cl)=C(/C(Cl)=C(Cl)Cl)N1CCCCC1`, the TGI in [1] came out at 30.2 µM; in [3] it was 22.2 µM; in [9], 40.8 µM; in assay [4], 18.2 µM; in [5], 22.2 µM; in [6] it was 29.5 µM. Further, the TGI was 7.5 µM in assay [10], 25.3 µM in assay [7] and 26.8 µM in [8].
Consider `Nc1c(S(N)(=O)=O)cc(S(N)(=O)=O)cc1S(N)(=O)=O`, for which the TGI in [1], in assay [2], in assay [3], in assay [9], in [4] and in assay [5] was greater than 100 µM throughout. Further, the TGI in assay [6], in assay [7] and in assay [8] was greater than 100 µM each time.
With `Oc1c(OCc2nnc(CCCCCCCCc3nnc(COc4ccc5ccccc5c4O)o3)o2)ccc2ccccc12`, the TGI in assay [1], in [2], in [4], in [5], in [6] and in assay [7] was greater than 100 µM in each case. The same compound returned a TGI in assay [8] greater than 100 µM.
In the case of `COc1cc(OC)cc(Oc2nc3cc(F)c(F)cc3nc2-c2ccccc2)c1`, the TGI in assay [1], in assay [2], in assay [3], in assay [9], in assay [5] and in assay [6] was greater than 100 µM in each case. The TGI in assay [10] and in assay [8] was greater than 100 µM each time.
In the case of `C[C@H](c1ccccc1)N1C(=O)[C@@H](OCc2ccccc2)[C@H]1[C@H](COC(=O)COCc1ccccc1)OCc1ccccc1`, the TGI in [1], in assay [9], in assay [4], in assay [5], in assay [10] and in assay [7] was greater than 100 µM in each case. Further, the TGI in assay [8] was greater than 100 µM.
With `N#Cc1nc(C2CCC(=O)O2)oc1N` (centres undefined), the TGI in assay [2], in [3], in assay [9], in [4], in assay [5] and in assay [6] was greater than 100 µM throughout. Besides, the TGI in [10], in [7] and in [8] was greater than 100 µM in each case.
Take `C=C1C[C@@H]2CC[C@@]34C[C@H]5O[C@H]6[C@@H](O3)[C@H]3O[C@H](CC[C@@H]3O[C@H]6[C@H]5O4)CC(=O)C[C@@H]3[C@@H](OC)[C@@H](C[C@H](O)CN)O[C@H]3C[C@H]3O[C@@H](CC[C@@H]1O2)C[C@@H](C)C3=C`: the TGI in [1] is greater than 1 µM; in [2] it was greater than 1 µM; in assay [3] it was 0.167 µM; in [9], greater than 1 µM; in assay [4], 0.0344 µM; in [5] it was 0.173 µM. For the same compound, the TGI was 0.0133 µM in assay [6], greater than 1 µM in assay [7] and greater than 0.199 µM in assay [8].
For `O=P1(C(O)/C=C/c2ccccc2)N(Cc2ccccc2)[C@@H]2CCCC[C@H]2N1Cc1ccccc1` (some centres undefined), the TGI came to 7.48 µM in [1]; 16.2 µM in [2]; 13.2 µM in assay [3]; 34.6 µM in [9]; 4.59 µM in [4]; 21.5 µM in assay [5]. Also, the TGI was 21.5 µM in assay [6], 16.4 µM in assay [7] and 16.5 µM in [8].
For `Cc1cc(OCc2nnc3sc(NC(=O)c4ccccc4)nn23)ccc1Cl`, the TGI in [1] was 34.8 µM; in assay [2], greater than 100 µM; in assay [3], 47.1 µM; in assay [9], 48.2 µM; in assay [4] it was 69.2 µM; in [5], 82.2 µM. For the same compound, the TGI in assay [6], in assay [7] and in [8] was greater than 100 µM in each case.
With `Cc1ccc(S(=O)(=O)c2c(O)c3ccc(O)c(C)c3oc2=O)cc1`, the TGI in assay [1], in [2], in assay [3], in assay [4], in [5] and in assay [6] was greater than 100 µM in each case. In addition, the TGI in [10], in [7] and in assay [8] was greater than 100 µM throughout.
With `CC1(C)N=C(N)N=C(N)N1c1cccc(OCc2cccc(N)c2)c1`, the TGI in assay [1] was greater than 100 µM; in assay [2] it was 55 µM; in [3], greater than 100 µM; in [9] it was greater than 100 µM; in assay [4], greater than 100 µM; in assay [5], greater than 100 µM. Further, the TGI in assay [6], in assay [7] and in [8] was greater than 100 µM throughout.
As for `CCN(CCCCCCCCCCN1CC(=O)N(CCCCCCCCCCN(CC)Cc2ccccc2OC)CC1=O)Cc1ccccc1OC`, the GI50 was 0.359 µM in assay [1]; 1.7 µM in assay [2]; 1.47 µM in [3]; 1.56 µM in assay [9]; 0.812 µM in assay [4]; 1.81 µM in [5]. The results for the GI50 in assay [10], in assay [7] and in assay [8] were 0.355 µM, 0.388 µM and 1.15 µM, respectively. In addition, the TGI in assay [1] was determined as 2.34 µM; in assay [2], 3.34 µM; in [3] it was 3.29 µM; in assay [9], 3.05 µM; in assay [4], 3.1 µM; in assay [5] it was 4.52 µM. For the same compound, the TGI in assay [10] came to 2.37 µM; in [7], 12 µM; in assay [8] it was 2.58 µM.
As for `CC(C)CC(NC(=O)C(CCC(=O)OCc1ccccc1)NC(=O)OC(C)(C)C)C(=O)NC(COCc1ccccc1)C(=O)NC(Cc1ccccc1)C(=O)Oc1c(Cl)c(Cl)c(Cl)c(Cl)c1Cl` (centres undefined) (Boc-E(OBn)LS(Bn)F-X26; configuration not given here), the TGI is 43.8 µM in assay [1]; 66.3 µM in [2]; 65.5 µM in [3]; 76.6 µM in assay [4]; 34.2 µM in [5]; greater than 100 µM in assay [6]. Besides, the figures for the TGI in assay [10] and in assay [8] were 97.9 µM and 43.7 µM, respectively.
`N#Cc1nc(CCCN2C(=O)c3ccccc3C2=O)oc1N`: the TGI in assay [2], in [3], in assay [9], in assay [4], in assay [5] and in assay [6] was greater than 100 µM in each case. Also, the TGI in assay [10], in [7] and in assay [8] was greater than 100 µM throughout.
For `CC(=O)OC1CC2(O)C(CCC3(C)C(c4ccc(=O)oc4)CCC32O)C2(C)C1=CC(O)C1OC12` (centres undefined), the TGI in assay [1] was determined as 0.157 µM; in [2], 0.333 µM; in assay [3], 0.258 µM; in assay [9], 0.172 µM; in [4], 0.4 µM; in assay [5], 0.0618 µM. Besides, the results for the TGI in assay [6], in assay [7] and in assay [8] were 2.89 µM, 0.381 µM and 0.281 µM, respectively.
Regarding `O=c1c(-c2ccccc2)c(SCCN2CCCCCC2)n(-c2ccccc2)c(=S)n1-c1ccccc1`, the TGI in assay [1], in assay [2], in assay [3], in [9], in [4] and in assay [5] was greater than 100 µM each time. The TGI in assay [10] was determined as 84.5 µM; in assay [7], 93.9 µM.
Regarding `CCOc1snc(C(Cl)(Cl)Cl)c1Cl`, the TGI in assay [2] is 33.9 µM; in [3], 94.4 µM; in assay [9], greater than 100 µM; in assay [4] it was 59.1 µM; in assay [5], 44.3 µM; in assay [6] it was 28.9 µM. The TGI in assay [10] is 35.6 µM; in [7] it was greater than 100 µM; in assay [8], greater than 100 µM.
With `COc1ccc(OC/C(N=Cc2ccncc2)=N/NC(=O)c2ccncc2)cc1`, the TGI in [1] is 96.4 µM; in [2] it was greater than 100 µM; in [3], greater than 100 µM; in assay [9] it was greater than 100 µM; in [4] it was greater than 100 µM; in [5] it was greater than 100 µM. For the same compound, the TGI in assay [6], in [7] and in [8] was greater than 100 µM throughout.
